{"source": "patent US5750516A", "about": "“Phosphoric diester” (Senju Pharmaceutical Co., Ltd., priority 1995, dated 1998)", "key": {"[1]": {"tested_on": "lipid peroxidation in rat brain homogenate", "assay": "Autooxidation (lipid peroxidation) of the rat brain homogenate, MDA by TBA method", "format": "biochemical, Rats of Wistar strain", "settings": "for Inhibition (%) of lipid peroxidation in rat brain homogenate: 37° C., 30 minutes, pH 7.4", "method": "Rats of Wistar strain (male, 11 weeks old) were used. The animal was decapitated and the brain was enucleated and homogenized in 4 ml/gram of 50 mM phosphate-buffered saline (pH 7.4). The homogenate was centrifuged (1000 g, 10 min.) and the supernatant was harvested. The test solution was set to 10^-7 -10^-4 M (dissolved at a final ethanol concentration of 1%). To 100 μl of the test solution was added 200 μl of the brain homogenate as well as 700 μl of phosphate-buffered saline and the mixture was incubated at 37° C. for 30 minutes for lipid peroxidation. The reaction was stopped with 200 μl of 35% perchloric acid and centrifuged (1300 g, 10 min.) and the MDA (malondialdehyde) value of the supernatant was determined by the TBA (thiobarbituric acid) method."}, "[2]": {"assay": "DPPH (1,1-Diphenyl-2-picrylhydrazyl) radical scavenging action", "format": "biochemical", "settings": "for Inhibition (%) (scavenging effect on DPPH radical): 20 minutes, 517 nm", "method": "To 2.7 ml of 0.11 mM-DPPH/ethanol was added 300 μl of the test solution and the mixture was stirred and allowed to stand for 20 minutes. Then, the absorbance was measured at 517 nm. The radical scavenging effect (%) of each test solution was calculated by means of the following equation. [formula]"}}}
{"smiles": "Cc1c(C)c2c(c(C)c1OP(=O)([O-])O[C@@H](CO)[C@H]1OC(=O)C(O)=C1O)CCC(C)(CCCC(C)CCCC(C)CCCC(C)C)O2.[K+]", "note": "(stereo partly drawn) [the present compound, L-ascorbic acid 5-[3,4-dihydro-2,5,7,8-tetramethyl-2-(4,8,12-trimethyltridecyl)-2H-1-benzopyran-6-yl hydrogen phosphate] potassium]", "values": [{"measurement": "Inhibition (%) of lipid peroxidation in rat brain homogenate", "setting": "[1]; 10^-4 M", "value": 98.5, "unit": "%"}, {"measurement": "Inhibition (%) of lipid peroxidation in rat brain homogenate", "setting": "[1]; 10^-5 M", "value": 98.7, "unit": "%"}, {"measurement": "Inhibition (%) of lipid peroxidation in rat brain homogenate", "setting": "[1]; 10^-6 M", "value": 93.3, "unit": "%"}, {"measurement": "inhibition of autooxidation of the rat brain homogenate (in words)", "setting": "[1]; 10^-7 -10^-4 M", "value": "inhibits autooxidation of the rat brain homogenate to a remarkable extent"}, {"measurement": "Inhibition (%) of lipid peroxidation in rat brain homogenate", "setting": "[1]; 10^-7 M", "value": 24.7, "unit": "%"}, {"measurement": "Inhibition (%) (scavenging effect on DPPH radical)", "setting": "[2]; 5 × 10^-5 M", "value": 71.7, "unit": "%"}, {"measurement": "Inhibition (%) (scavenging effect on DPPH radical)", "setting": "[2]; 10^-3 M", "value": 96.7, "unit": "%"}, {"measurement": "Inhibition (%) (scavenging effect on DPPH radical)", "setting": "[2]; 10^-4 M", "value": 97.3, "unit": "%"}, {"measurement": "Inhibition (%) (scavenging effect on DPPH radical)", "setting": "[2]; 10^-5 M", "value": 13.1, "unit": "%"}, {"measurement": "scavenging of DPPH radicals (in words)", "setting": "[2]; 10^-5 to 10^-3 M", "value": "scavenges DPPH radicals to a remarkable extent"}]}
